Experimental data reported in patent publication US20040228872A1 (priority 2003, published 2004).

How the values were obtained:
[1] = in vivo; cited from earlier work
[2] = tested on: orbicularis oculi muscles; settings: guinea pig, in vivo
foreleg flexor muscles = settings: mouse, in vivo

SMILES: O=c1c(-c2ccc(O)cc2)coc2cc(O)cc(O)c12 [genistein, 5,7-dihydroxy-3-(4-hydroxyphenyl)-4H-1-benzopyran-4-one]
- Tolerability of dietary intake [1]: without obvious ill effects
- Delay of time to 50% recovery of blinks (blink amplitude) [2]: approximately 10 days
- Recovery of blinks after surgery [2]: full recovery within a week
- Reduction of blink amplitude after surgery [2]: ≤ 10%
- Grip strength recovery (percent of untreated baseline grip strength) (foreleg flexor muscles): retarded
